Measurements as given in patent US6444235B1, “Canelo products and methods of making and using same” (bioActiva microtechne, priority 1999, dated 2002).

System: p-388 (linfocitic leukemia)
Assay: biological activity on P-388 leukemia cultures
Format: cell-based

Compound: O=C1c2c(O)cc(O)cc2O[C@H](c2ccc(O)c(O)c2)[C@H]1O [taxifoline]
- anticarcinogenic activity on P-388 cultures (leufocytic leukemia): has shown anticarcinogenic activity
